From ChEMBL document CHEMBL1133597, “Fluorosulfonyl-substituted xanthines as selective irreversible antagonists for the A(1)-adenosine receptor” (J Med Chem, 2000)

Experiments:
[1] = molecular target: T1, Adenosine receptor A1 (Homo sapiens) (UniProt P30542); test: Percent loss of [3H]DPCPX binding to adenosine A1 receptor at 5 nM; settings: Cricetulus griseus
T1 sequence (whole entry): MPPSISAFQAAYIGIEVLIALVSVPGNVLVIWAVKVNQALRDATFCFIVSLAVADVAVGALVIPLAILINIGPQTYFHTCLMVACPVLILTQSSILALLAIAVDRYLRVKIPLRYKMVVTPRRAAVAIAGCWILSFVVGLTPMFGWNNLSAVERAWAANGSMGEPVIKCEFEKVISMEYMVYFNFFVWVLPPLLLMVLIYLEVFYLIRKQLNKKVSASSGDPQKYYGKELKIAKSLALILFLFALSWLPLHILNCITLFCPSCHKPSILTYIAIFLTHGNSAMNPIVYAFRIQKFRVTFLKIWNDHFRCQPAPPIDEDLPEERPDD

[2] = molecular target: T1, Adenosine receptor A1 (Homo sapiens); test: Percent loss of [3H]-DPCPX binding to adenosine A1 receptor at 200 nM; settings: Cricetulus griseus
[3] = molecular target: T1, Adenosine receptor A1 (Homo sapiens); test: Percent loss of [3H]-DPCPX binding to adenosine A1 receptor at 100 nM; settings: Cricetulus griseus
[4] = molecular target: T1, Adenosine receptor A1 (Homo sapiens); test: Percent loss of [3H]DPCPX binding to adenosine A1 receptor at 0.1 nM; settings: Cricetulus griseus
[5] = molecular target: T1, Adenosine receptor A1 (Homo sapiens); test: Percent loss of [3H]DPCPX binding to adenosine A1 receptor at 0.05 nM; settings: Cricetulus griseus
Adenosine receptor A1 = molecular target: T2, Adenosine receptor A1 (Homo sapiens, UniProt P30542); test: Inhibition of [3H]-DPCPX binding to adenosine A1 receptor (AR).; set-up: species or system Cricetulus griseus
T2 sequence (P30542 whole entry): T1 sequence (whole entry)

Adenosine receptor A2a [6] = molecular target: T3, Adenosine receptor A2a (Rattus norvegicus, UniProt P30543)
T3 sequence (P30543 whole entry): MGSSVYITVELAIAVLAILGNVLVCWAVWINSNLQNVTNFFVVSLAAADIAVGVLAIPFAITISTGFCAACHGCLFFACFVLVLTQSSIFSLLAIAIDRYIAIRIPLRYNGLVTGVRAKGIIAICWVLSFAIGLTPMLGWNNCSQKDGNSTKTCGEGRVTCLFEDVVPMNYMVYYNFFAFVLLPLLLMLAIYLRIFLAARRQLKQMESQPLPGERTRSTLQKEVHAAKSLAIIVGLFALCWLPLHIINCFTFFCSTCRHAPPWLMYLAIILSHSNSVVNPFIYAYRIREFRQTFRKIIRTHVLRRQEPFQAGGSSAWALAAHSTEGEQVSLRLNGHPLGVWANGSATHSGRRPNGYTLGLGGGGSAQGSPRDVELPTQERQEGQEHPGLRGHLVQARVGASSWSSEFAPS
Description: Inhibition of [3H]ZM-241385 binding to adenosine A2A receptor(AR).

Adenosine receptor A2a [7] = molecular target: T3, Adenosine receptor A2a; remark: listed apart in the source
Description: Dissociation constant of [3H]ZM-241385 binding to adenosine A2A receptor(AR)

| SMILES | Loss [1] [%] | Loss [2] [%] | IC50 (Adenosine receptor A1) [nM] | IC50 (Adenosine receptor A2a [6]) [nM] | also measured |
| --- | --- | --- | --- | --- | --- |
| CCCn1c(=O)c2nc(C3CCCC3)[nH]c2n(CCCOC(=O)c2ccc(S(=O)(=O)F)cc2)c1=O | 67 |  |  |  |  |
| CCCn1c(=O)c2nc(C3CCCCC3)[nH]c2n(CCCc2ccc(S(=O)(=O)F)cc2)c1=O |  | 11 |  |  |  |
| CCCn1c(=O)c2nc(C3CCCCC3)[nH]c2n(CCCNC(=O)c2ccc(S(=O)(=O)F)cc2)c1=O | 64 |  | 24.9 |  | Loss [3]: 82%; Loss [4]: 43%; Loss [5]: 16% |
| CCCn1c(=O)c2[nH]c(C3CCCC3)nc2n(CCCOC(=O)c2ccc(S(=O)(=O)F)cc2)c1=O |  |  |  | 1.2 | Kd (Adenosine receptor A2a [7]): 0.23 nM |
| CCCn1c(=O)c2[nH]c(C3CCCCC3)nc2n(CCCc2ccc(S(=O)(=O)F)cc2)c1=O |  |  | 112 | > 10 |  |
| CCCn1c(=O)c2[nH]c(C3CCCCC3)nc2n(Cc2ccc(S(=O)(=O)F)cc2)c1=O |  |  | 165 | > 10 |  |
| CCCn1c(=O)c2nc(C3CCCC3)[nH]c2n(CCCNC(=O)c2ccc(S(=O)(=O)F)cc2)c1=O | 74 |  |  | 2.8 | Loss [3]: 83%; Loss [4]: 64%; Loss [5]: 33%; Kd (Adenosine receptor A2a [7]): 0.34 nM |
| CCCn1c(=O)c2nc(C3CCCCC3)[nH]c2n(Cc2ccc(S(=O)(=O)F)cc2)c1=O |  | 0 |  |  |  |
| CCCn1c(=O)c2nc(C3CCCCC3)[nH]c2n(CCCCCc2ccc(S(=O)(=O)F)cc2)c1=O |  | 43 | 101 | > 10 |  |
